This is an account of results in ChEMBL document CHEMBL5584261, “N-methylmorpholine incorporation into the structure of biphenyl leads to the bioactive inhibitor of PD-1/PD-L1 interaction” (Bioorg Med Chem Lett, 2024).

As a reminder, the IC50 is the concentration that inhibits the measured activity by half. Lower therefore signals greater potency. As a reminder, the EC50 is the concentration needed to bring the measured effect to its halfway point.

Test [1] addresses T1, Programmed cell death protein 1/Programmed cell death 1 ligand 1 (Homo sapiens) (UniProt Q15116+Q9NZQ7). The experiment in a line: Inhibition of human PD-1/PD-L1 interaction assessed as residual activity at 500 nM for 1 hr by HTRF assay relative to control. The class given is protein-complex assay.
Test [2] has as its target T2, Programmed cell death protein 1/Programmed cell death 1 ligand 1 (Homo sapiens, UniProt Q9NZQ7). Description: Inhibition of human PD-1/PD-L1 interaction incubated for 1 hr by HTRF assay. It counts as protein-complex assay. Background: Time-resolved FRET reads energy transfer from a long-lived donor to a nearby acceptor.
Test [3] deals with T1, Programmed cell death protein 1/Programmed cell death 1 ligand 1 (Homo sapiens). The experiment in a line: (§1) Inhibition of PD-1/PD-L1 interaction in human Jurkat T cells co-cultured with CHO/TCRAct/PDL1 cells assessed as restoration of T cell activation measured for 6 hrs by luminescence based immune checkpoint blockade assay. To be noted: dose 0.1-100 µM.
For test [4], the target named is T2, Programmed cell death protein 1/Programmed cell death 1 ligand 1. The description is as §1.
Test [5] concerns PBMC. The experiment in a line: Induction of T cell activation in human PBMC cells co-cultured with CHO/TCRAct/PD-L1 cells assessed as increase in PD-1 positive cells at 10 uM incubated for 48 hrs by flow cytometry analysis. It counts as functional, cell-based.
Test [6] concerns PBMC. The experiment in a line: Induction of T cell activation in human PBMC cells co-cultured with CHO/TCRAct/PD-L1 cells assessed as increase in HLA-DR positive cells at 10 uM incubated for 48 hrs by flow cytometry analysis. The class given is functional, cell-based. (In general: In flow cytometry, cells or beads pass a laser one at a time.)
Test [7] concerns PBMC. The experiment in a line: Induction of T cell activation in human PBMC cells co-cultured with CHO/TCRAct/PD-L1 cells assessed as increase in the percentage of CD25+/CD4+ cells at 10 uM incubated for 48 hrs by flow cytometry analysis. It counts as functional, cell-based.
In test [8] the test system is PBMC. Description: Induction of T cell activation in human PBMC cells co-cultured with CHO/TCRAct/PD-L1 cells assessed as increase in the percentage of CD69+/CD8+ cells at 10 uM incubated for 48 hrs by flow cytometry analysis. The class given is functional, cell-based.

The structures appear in SMILES notation. Activity calls are given as the source filed them. The rule behind the calls is not given here.

T2 sequence (Q15116 whole entry): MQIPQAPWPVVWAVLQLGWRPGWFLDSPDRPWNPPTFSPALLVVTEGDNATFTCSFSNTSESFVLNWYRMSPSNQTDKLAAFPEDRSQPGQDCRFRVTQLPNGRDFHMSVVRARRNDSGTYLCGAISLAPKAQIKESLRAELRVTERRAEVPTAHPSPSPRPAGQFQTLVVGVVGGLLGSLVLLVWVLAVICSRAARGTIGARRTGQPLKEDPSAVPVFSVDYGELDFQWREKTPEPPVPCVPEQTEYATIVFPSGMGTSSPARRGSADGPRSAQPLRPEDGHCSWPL
T2 sequence (Q9NZQ7 whole entry): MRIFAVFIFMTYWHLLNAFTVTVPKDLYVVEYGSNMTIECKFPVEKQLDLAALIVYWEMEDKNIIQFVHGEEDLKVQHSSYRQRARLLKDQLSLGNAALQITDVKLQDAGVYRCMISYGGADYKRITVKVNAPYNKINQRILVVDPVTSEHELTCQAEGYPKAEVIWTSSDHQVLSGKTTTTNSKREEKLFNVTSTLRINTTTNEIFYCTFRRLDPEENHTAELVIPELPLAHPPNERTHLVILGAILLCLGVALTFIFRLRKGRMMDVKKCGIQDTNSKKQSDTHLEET

With `Cc1c(COc2ccc(CNC(CO)CO)cc2)cccc1-c1ccc2c(c1)OCCN2C(=O)c1ccc(CNC(CO)CO)cc1`, the Activity in test [1] came to 84%.
With `Cc1c(COc2ccc(CNC(CO)(CO)CO)cc2)cccc1-c1ccc2c(c1)OCCN2C(=O)c1ccc(CNC(CO)(CO)CO)cc1`, the Activity in test [1] came out at 83%.
With `Cc1c(NC(=O)c2ccc(CNC(CO)CO)cn2)cccc1-c1ccc2c(c1)OCCN2C(=O)c1ccc(CNC(CO)CO)cc1`, the Activity in test [1] stood at 70%.
Same read-out and setting: under `Cc1c(NC(=O)c2ccc(CNC(CO)(CO)CO)cn2)cccc1-c1ccc2c(c1)OCCN2C(=O)c1ccc(CNC(CO)(CO)CO)cc1` stands 92%.
In test [2], `Cc1c(NC(=O)c2ccc(CNC(CO)CO)cn2)cccc1-c1ccc2c(c1)OCCN2C` returned an IC50 of 0.109 µM. Further, in test [3], the inhibition result is “inactive”.
On to `O=C(O)[C@@H]1CCCCN1Cc1ccc(OCc2cccc(-c3ccccc3)c2Br)c(Br)c1`, for which the EC50 in test [4] amounted to 6.6 µM.
`Cc1c(NC(=O)c2ccc(CNC(CO)(CO)CO)cn2)cccc1-c1ccc2c(c1)OCCN2C`: the outcome in the test with PBMC [5], with PBMC [6], in the test with PBMC [7] and in the test with PBMC [8] was Active. The molecule further showed an IC50 in test [2] of 0.077 µM. Also, in test [4], the 50% effective concentration (EC50) came to 25.8 µM. In addition, in test [3], the inhibition entry was “Dose-Dependent Effect”.
